Results taken from patent US11099176B2 (priority 2015, dated 2021).
Like-named read-outs stand apart in the source and are kept apart here.

Assays:
[1] = biological target: Marinobacter sp. msLacBP6 variant 187C, P150A, SEQ ID NO: 54, Acrylodan conjugate; experiment: Fluorescence titration of conjugate (affinity tuning); format: binding; details: read-out: trueKd (lactate); monochromatic, 463 nm
[2] = biological target: T1, Flexistipes sinusarabici fsLacBP13 variant W188C, SEQ ID NO: 47, Acrylodan conjugate (Flexistipes sinusarabici, UniProt F8E724, W211C); experiment: Fluorescence titration of conjugate; format: binding
T1 construct: Acrylodan on Cys188
T1 sequence (F8E724 entry or part of it W211C): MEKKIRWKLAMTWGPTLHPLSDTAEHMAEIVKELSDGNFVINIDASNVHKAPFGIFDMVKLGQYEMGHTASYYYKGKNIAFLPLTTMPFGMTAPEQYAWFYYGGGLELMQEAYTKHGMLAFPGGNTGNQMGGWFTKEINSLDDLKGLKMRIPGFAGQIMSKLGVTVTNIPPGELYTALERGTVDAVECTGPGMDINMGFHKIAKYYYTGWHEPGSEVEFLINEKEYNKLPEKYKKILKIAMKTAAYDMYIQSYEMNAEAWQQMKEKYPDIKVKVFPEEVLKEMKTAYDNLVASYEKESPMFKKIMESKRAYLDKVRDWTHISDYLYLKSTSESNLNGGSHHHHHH

[3] = biological target: T2, Flexistipes sinusarabici fsLacBP13, YP_004603455.1, SEQ ID NO: 13 (expressed form SEQ ID NO: 27) (Flexistipes sinusarabici, UniProt F8E724); experiment: Lactate binding by thermal stability shift and labeled conjugate; details: thermostability vs ligand concentration; fluorescence response of labeled conjugate
T2 construct: thermal shift
T2 sequence (F8E724 entry or part of it): as the sequence (F8E724 entry or part of it W211C) above, with C188W counted along it
From the text: (§1) These experiments comprise four successive steps: • 1. Synthetic gene construction. The amino acid sequence of the homology leads are back translated into DNA sequences. These are optimized for directing heterologous cytoplasmic expression of the protein homologues in E. coli, using either the OrfOpt or OrfMorph programs. These programs predict mRNA sequences that direct high-level protein expression in E. coli. The predicted gene sequences are assembled de novo from synthetic oligonucleotides. • 2. Heterologous protein expression of the homologues in E. coli. Plasmids carrying the synthetic expression constructs (see above) were transformed into KRX competent cells (Promega). Protein production was induced in bacterial cultures of these cultures. • 3. Purification of successfully expressed protein using immobilized metal affinity chromatography. • 4.
(§2) The thermal stability of purified LacBP candidate proteins was determined by measuring the temperature-dependence of the fluorescence signal of an extrinsically added dye, SYPRO, using a Roche LightCycler (Layton and Hellinga, 2010, Biochemistry, 49, 10831-41). The total fluorescence intensity, S, is given by S=βFfF+βUfU 11 where fF and fU are the fractions of protein in the folded and unfolded states, respectively, and βF and βUthe fluorescence baselines of these two states. To get the fractions of the two states, we have
(§3) To obtain the temperature dependence of the binding reaction, the Kd values of all the individually determined isotherms were fit the Gibbs-Hemholtz equation (Layton and Hellinga, 2010, Biochemistry, 49, 10831-41): […]

[4] = test system: Anaeromyxobacter dehalogenans adLacBP9, YP_466099.1, SEQ ID NO: 9 (expressed form SEQ ID NO: 23); experiment: as above; details: thermostability vs ligand concentration; fluorescence response of labeled conjugate
From the text: as §1, §2, §3

[5] = biological target: Pseudomonas stuztzeri psLacBP11, YP_006522676.1, SEQ ID NO: 11 (expressed form SEQ ID NO: 25) (Stutzerimonas nitrititolerans, UniProt A0ABX9V4I2); experiment: as above; details: thermostability vs ligand concentration; fluorescence response of labeled conjugate
Pseudomonas stuztzeri psLacBP11, YP_006522676.1, SEQ ID NO: 11 (expressed form SEQ ID NO: 25), sequence (A0ABX9V4I2 entry or part of it): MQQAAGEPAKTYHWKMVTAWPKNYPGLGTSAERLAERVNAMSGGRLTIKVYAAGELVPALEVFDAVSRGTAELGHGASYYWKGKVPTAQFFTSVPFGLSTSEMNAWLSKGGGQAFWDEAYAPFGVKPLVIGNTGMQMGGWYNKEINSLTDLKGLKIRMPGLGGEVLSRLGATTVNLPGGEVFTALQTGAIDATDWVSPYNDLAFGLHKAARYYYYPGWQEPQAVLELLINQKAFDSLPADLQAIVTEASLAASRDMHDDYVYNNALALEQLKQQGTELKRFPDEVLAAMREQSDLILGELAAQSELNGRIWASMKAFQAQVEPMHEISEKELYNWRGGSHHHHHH
From the text: as §1, §2, §3

[6] = biological target: Marinobacter sp. msLacBP6 variant V188C, SEQ ID NO: 39, Badan conjugate; experiment: Fluorescence titration of conjugate; format: binding; details: read-out: trueKd (lactate); monochromatic, 513 nm
[7] = biological target: Marinobacter sp. msLacBP6 variant 187C, L70I, SEQ ID NO: 52, Badan conjugate; experiment: Fluorescence titration of conjugate (affinity tuning); format: binding; details: λ1 460, λ2 537 nm
[8] = biological target: Marinobacter sp. msLacBP6 variant 187C, L70I, SEQ ID NO: 52, Acrylodan conjugate; experiment: as above; format: binding; details: λ1 452, λ2 582 nm
[9] = biological target: Marinobacter sp. msLacBP6 variant 187C, F68L, SEQ ID NO: 49, Badan conjugate; experiment: as above; format: binding; details: λ1 463, λ2 535 nm
[10] = biological target: Marinobacter sp. msLacBP6 variant Y187C, C-terminal βZif fusion, SEQ ID NO: 61, Acrylodan and βZif 5IAF (Fluorescein) conjugate; experiment: Fluorescence titration of doubly labeled conjugate (ngmFRET); format: binding
From the text: (§4) We tested whether non-geometrically modulated fluorescence energy transfer (ngmFRET) effects in doubly labeled proteins could improve ratiometric signaling. To this end, we fused a small, disulfide-containing domain, βZif (Smith et al., 2005, Protein Sci, 14, 64-73) to the C-terminus of msLacBP6 187C (Table 5). This arrangement enables independent, site-specific labeling with two different, thiol-reactive fluorophores by first reacting at the unprotected thiol in the msLacBP6, followed by a reduction of the […] disulfide to deprotect and label this second site with a second fluorophore. […] Indirectly responsive partners are selected according to their excitation and emission characteristics such that energy transfer is established between the two fluorophores. […] Mechanisms for non-geometrically modulated FRET (ngmFRET) effects are detailed in Materials and Methods and PCT International Patent Application No. PCT/US 16/62958, filed Nov. 19, 2016, the entire content of which is incorporated herein by reference.
(§5) In the Badan conjugates, the ngmFRET coupling was so strong that all the donor excited state energy was transferred to the acceptor, and the signal was converted from a dichromatic to a monochromatic response. In the Acrylodan conjugates, an improvement in the dichromatic signal was observed (FIG. 7).
(§6) Temperatures were advanced in 1K steps. […] Under these experimental photobleaching was not observed.

[11] = biological target: Marinobacter sp. msLacBP6 variant Y187C, C-terminal βZif fusion, SEQ ID NO: 61, Acrylodan and βZif Alexa532 conjugate; experiment: as above; format: binding
From the text: as §4, §5, §6

[12] = biological target: Marinobacter sp. msLacBP6 variant 187C, L70M, SEQ ID NO: 53, Acrylodan conjugate; experiment: Fluorescence titration of conjugate (affinity tuning); format: binding; details: λ1 455, λ2 479 nm
[13] = biological target: Marinobacter sp. msLacBP6 variant 187C, L70M, SEQ ID NO: 53, Badan conjugate; experiment: as above; format: binding; details: λ1 459, λ2 539 nm
[14] = biological target: T3, Pseudomonas stuztzeri psLacBP11 variant W195C, SEQ ID NO: 45, Acrylodan conjugate (Stutzerimonas nitrititolerans, UniProt A0ABX9V4I2, W224C); experiment: Fluorescence titration of conjugate; format: binding; details: λ1 487, λ2 466 nm
T3 construct: Acrylodan on Cys195
T3 sequence (A0ABX9V4I2 entry or part of it W224C): as the sequence (A0ABX9V4I2 entry or part of it) above, with W195C counted along it

C[C@H](O)C(=O)O [lactate]
Kd [1]: 6800 µM
Kd [2]: > 100000 µM
Kd ([2]; read-out: trueKd (lactate), λ1 482, λ2 450 nm): > 100000 µM
Lactate Binding [3]: weak^f,g
Lactate Binding [4]: weak^f,g
Lactate Binding [5]: weak^f,g
Kd [6]: 400 µM
Kd ([7]; read-out: appKd (lactate)): 300 µM
Kd ([7]; read-out: trueKd (lactate)): 200 µM
Kd ([8]; read-out: appKd (lactate)): 400 µM
Kd ([8]; read-out: trueKd (lactate)): 300 µM
Kd ([9]; read-out: appKd (lactate)): 400 µM
Kd ([9]; read-out: trueKd (lactate)): 400 µM
Kd ([10]; read-out: appKd (lactate), λ1 452, λ2 520 nm): 300 µM
Kd ([10]; read-out: trueKd (lactate), λ1 452, λ2 520 nm): 300 µM
Kd ([11]; read-out: appKd (lactate), λ1 452, λ2 550 nm): 400 µM
Kd ([11]; read-out: trueKd (lactate), λ1 452, λ2 550 nm): 300 µM
Kd ([12]; read-out: appKd (lactate)): 1600 µM
Kd ([12]; read-out: trueKd (lactate)): 1200 µM
Kd ([13]; read-out: appKd (lactate)): 1100 µM
Kd ([13]; read-out: trueKd (lactate)): 700 µM
Kd ([14]; read-out: appKd (lactate)): > 100000 µM
Kd ([14]; read-out: trueKd (lactate)): > 100000 µM
